Data taken from PubChem BioAssay (NCI).
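Where inhibition never reached the appropriate level, the endpoint shown equals the highest concentration tested. Otherwise, values were interpolated linearly from a five-concentration, 48-hour dose response in 96-well plates. GI50 = concentration required for 50% inhibition of growth. TGI: total growth inhibition.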

Tests used:
Test in all cases: NCI-60 cell line screen, 48 h
786-0 renal = system: 786-0 renal
MDA-N = system: MDA-N
NCI-H23 lung = system: NCI-H23 lung
NCI-H460 lung = system: NCI-H460 lung
OVCAR-5 ovarian = system: OVCAR-5 ovarian
SNB-19 CNS = system: SNB-19 CNS
SR leukemia = system: SR leukemia
U251 CNS = system: U251 CNS
UACC-62 melanoma = system: UACC-62 melanoma

Structure (SMILES)	TGI (786-0 renal) [µM]	TGI (MDA-N) [µM]	TGI (NCI-H23 lung) [µM]	TGI (NCI-H460 lung) [µM]	TGI (OVCAR-5 ovarian) [µM]	TGI (SNB-19 CNS) [µM]	TGI (SR leukemia) [µM]	TGI (U251 CNS) [µM]	TGI (UACC-62 melanoma) [µM]	GI50 (NCI-H23 lung) [µM]	GI50 (NCI-H460 lung) [µM]	GI50 (OVCAR-5 ovarian) [µM]	GI50 (SNB-19 CNS) [µM]	GI50 (U251 CNS) [µM]	GI50 (UACC-62 melanoma) [µM]
COc1ccc(Nc2nc3ccc(C(F)(F)F)cc3nc2C(=O)O)cc1OC	> 100	> 100	58.6	54.6	> 100	> 100	58	> 100	> 100						
Nc1c2ccccc2nc2c1ccc1ncccc12	> 100	74.7	75.6	47.4	> 100	> 100	> 100	> 100	37.8						
O=C1CCSSCCC(=O)NCCN1	> 100	> 100	> 100	> 100	> 100	> 100	> 100	> 100	> 100						
O=C1NCCCc2nonc21	> 100	> 100	> 100	> 100	> 100	> 100	> 100	> 100	> 100						
CC(C)(C)N=c1n(C(C)(C)C)oc(=O)n1C(C)(C)C	> 100	> 100	> 100	> 100	> 100	> 100	> 100	> 100	> 100						
Cc1ccccc1OC(C)C(=O)NN1C(=O)CC(=O)N(c2ccc(Cl)cc2)C1=S (stereo unspecified)	> 100	> 100	> 100	> 100	> 100	> 100	84.1	> 100	> 100						
CCC[C@H]1C(=O)N=C(N)N1C(=O)OCc1ccccc1	> 100	> 100	> 100	> 100	> 100	> 100	> 100	> 100	> 100						
N#Cc1c(-c2ccccc2)/c(=C\Nc2ccc(Cl)cc2)c(=O)n2c1nc1ccccc12	> 100	> 100	> 100	> 100	> 100	> 100		> 100							
COC(=O)c1c(C)cccc1/C=C1/Cc2c(C)cccc2C1=O	> 100	> 100	> 100	> 100	> 100			> 100	> 100						
COc1ccc2c(c1)O/C(=C\c1cccc(OCC(=O)Nc3nc4c(s3)CCCC4)c1)C2=O	> 19.9		> 100	> 100	> 78.8	> 100		8.31	> 100	5.52	> 100	> 40.6	44.6	2.8	> 46.2
CCOP(=O)(OCC)C1C(CO)OC(n2ccc(=O)[nH]c2=O)C1O (stereo unspecified)	> 100	> 100		> 100		> 100	> 100		> 100						
